Test results taken from PubChem BioAssay AID248 (DTP/NCI, 2004).
“And” between values parts separate entries of the source, which are not always exact repeats. Equal entries are not always repeated. Inconclusive results and toxic doses are left out.

Tested on: L1210 leukemia ip in BDF1 mice, survival T/C
Assay: NCI In Vivo Anticancer Drug Screen. Data for tumor model L1210 Leukemia (intraperitoneal) in B6D2F1 (BDF1) mice
Settings: endpoint: mean survival time, higher = longer survival
Summary of the method: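 Antitumor effect is assessed in tumor-bearing animals. Survival in the compound arm is compared with a vehicle-dosed control arm and expressed as their quotient.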

[1] = dose: 50.0 mg/kg/injection, schedule: Q01DX009 (ip), vehicle: saline
[2] = dose: 100.0 mg/kg/injection, schedule: Q04DX003 (ip), vehicle: saline with Tween-80
[3] = dose: 200.0 mg/kg/injection, schedule: Q04DX003 (ip), vehicle: saline with Tween-80
[4] = dose: 100.0 mg/kg/injection, schedule: Q01DX001 (ip), vehicle: carboxymethylcellulose (CMC)
[5] = dose: 200.0 mg/kg/injection, schedule: Q01DX001 (ip), vehicle: carboxymethylcellulose (CMC)
[6] = dose: 400.0 mg/kg/injection, schedule: Q01DX001 (ip), vehicle: carboxymethylcellulose (CMC)
[7] = dose: 100.0 mg/kg/injection, schedule: Q04DX003 (ip), vehicle: saline
[8] = dose: 100.0 mg/kg/injection, schedule: Q04DX002 (ip), vehicle: Klucel (hydroxypropylcellulose) (HPC)
[9] = dose: 200.0 mg/kg/injection, schedule: Q04DX002 (ip), vehicle: Klucel (hydroxypropylcellulose) (HPC)
[10] = dose: 100.0 mg/kg/injection, schedule: Q01DX009 (ip), vehicle: saline with Tween-80
[11] = dose: 100.0 mg/kg/injection, schedule: Q04DX003 (ip), vehicle: Klucel (hydroxypropylcellulose) (HPC)
[12] = dose: 200.0 mg/kg/injection, schedule: Q04DX003 (ip), vehicle: Klucel (hydroxypropylcellulose) (HPC)
[13] = dose: 400.0 mg/kg/injection, schedule: Q04DX003 (ip), vehicle: Klucel (hydroxypropylcellulose) (HPC)

Compound: CN=C(N)NC
- T/C [1]: 94 % of control
- T/C (dose: 100.0 mg/kg/injection, schedule: Q01DX009 (ip), vehicle: saline): 100 % of control
- T/C [2]: 98 % of control
- T/C (dose: 200.0 mg/kg/injection, schedule: Q01DX009 (ip), vehicle: saline): 91 % of control
- T/C [3]: 97 % of control

Compound: O=C(O)CC1COc2ccccc2O1 (centres undefined)
- T/C [4]: 91 % of control
- T/C [5]: 105 % of control
- T/C [6]: 94 % of control

Compound: Nc1cc(Cl)ccc1O
- T/C (dose: 100.0 mg/kg/injection, schedule: Q01DX001 (ip), vehicle: saline): 98 % of control
- T/C (dose: 200.0 mg/kg/injection, schedule: Q01DX001 (ip), vehicle: saline): 91 % of control

Compound: CC(=O)N(C)c1ccc(NC(=O)Nc2c(C)cccc2C)cc1
- T/C (dose: 25.0 mg/kg/injection, schedule: Q04DX002 (ip), vehicle: saline): 94 % of control
- T/C (dose: 50.0 mg/kg/injection, schedule: Q01DX009 (ip), vehicle: Klucel (hydroxypropylcellulose) (HPC)): 96 % of control
- T/C (dose: 50.0 mg/kg/injection, schedule: Q04DX002 (ip), vehicle: saline): 93 % of control
- T/C (dose: 100.0 mg/kg/injection, schedule: Q01DX009 (ip), vehicle: Klucel (hydroxypropylcellulose) (HPC)): 98 % of control
- T/C (dose: 100.0 mg/kg/injection, schedule: Q04DX002 (ip), vehicle: saline): 96 % of control
- T/C (dose: 200.0 mg/kg/injection, schedule: Q01DX009 (ip), vehicle: Klucel (hydroxypropylcellulose) (HPC)): 102 % of control
- T/C (dose: 200.0 mg/kg/injection, schedule: Q04DX002 (ip), vehicle: saline): 110 % of control and 112 % of control
- T/C (dose: 400.0 mg/kg/injection, schedule: Q01DX009 (ip), vehicle: Klucel (hydroxypropylcellulose) (HPC)): 96 % of control
- T/C (dose: 400.0 mg/kg/injection, schedule: Q04DX002 (ip), vehicle: saline): 94 % of control

Compound: CCOC(=O)c1ccc([N+](=O)[O-])s1
- T/C [7]: 100 % of control
- T/C (dose: 200.0 mg/kg/injection, schedule: Q04DX003 (ip), vehicle: saline): 97 % of control
- T/C (dose: 400.0 mg/kg/injection, schedule: Q04DX003 (ip), vehicle: saline): 111 % of control

Compound: O=C(O)c1ccccc1CN1CCCC(C(=O)O)C1 (centres undefined)
- T/C (dose: 6.25 mg/kg/injection, schedule: Q01DX009 (ip), vehicle: saline with Tween-80): 101 % of control
- T/C (dose: 12.5 mg/kg/injection, schedule: Q01DX009 (ip), vehicle: saline with Tween-80): 97 % of control
- T/C (dose: 25.0 mg/kg/injection, schedule: Q01DX009 (ip), vehicle: saline with Tween-80): 92 % of control

Compound: CC(=O)Nc1ccc(-c2cnc3ccccc3c2)cc1
- T/C (dose: 5.0 mg/kg/injection, schedule: Q01DX001 (ip), vehicle: saline): 106 % of control
- T/C (dose: 10.0 mg/kg/injection, schedule: Q01DX001 (ip), vehicle: saline): 106 % of control
- T/C (dose: 20.0 mg/kg/injection, schedule: Q01DX001 (ip), vehicle: saline): 97 % of control
- T/C (dose: 40.0 mg/kg/injection, schedule: Q01DX001 (ip), vehicle: saline): 90 % of control
- T/C (dose: 80.0 mg/kg/injection, schedule: Q01DX001 (ip), vehicle: saline): 95 % of control

Compound: O=C1CCC=Cc2c(O)ccc(O)c21
- T/C [4]: 91 % of control
- T/C [5]: 93 % of control
- T/C [6]: 96 % of control

Compound: Cc1cccc(Nc2c(N)nc(N)nc2N)c1
- T/C (dose: 25.0 mg/kg/injection, schedule: Q01DX009 (ip), vehicle: saline): 105 % of control
- T/C [1]: 120 % of control
- T/C [7]: 104 % of control

Compound: C(=C\n1ccnc1)/c1ccccc1
- T/C (dose: 100.0 mg/kg/injection, schedule: Q04DX003 (ip), vehicle: gum acacia): 97 % of control
- T/C (dose: 200.0 mg/kg/injection, schedule: Q04DX003 (ip), vehicle: gum acacia): 87 % of control

Compound: CCCCCCCCCCCCCC(O)CC(=O)O (centres undefined)
- T/C [8]: 91 % of control
- T/C [9]: 91 % of control
- T/C (dose: 400.0 mg/kg/injection, schedule: Q04DX002 (ip), vehicle: Klucel (hydroxypropylcellulose) (HPC)): 104 % of control

Compound: O=C(O)C1CCCCC1C(=O)Nc1ccccc1C(F)(F)F (centres undefined)
- T/C [10]: 98 % of control
- T/C [2]: 105 % of control
- T/C (dose: 200.0 mg/kg/injection, schedule: Q01DX009 (ip), vehicle: saline with Tween-80): 90 % of control
- T/C [3]: 100 % of control
- T/C (dose: 400.0 mg/kg/injection, schedule: Q01DX009 (ip), vehicle: saline with Tween-80): 94 % of control
- T/C (dose: 400.0 mg/kg/injection, schedule: Q04DX003 (ip), vehicle: saline with Tween-80): 100 % of control

Compound: O=c1[nH]c(Nc2ccccc2)c([N+](=O)[O-])c(=O)[nH]1
- T/C (dose: 9.0 mg/kg/injection, schedule: Q01DX001 (ip), vehicle: Klucel (hydroxypropylcellulose) (HPC)): 98 % of control
- T/C (dose: 18.0 mg/kg/injection, schedule: Q01DX001 (ip), vehicle: Klucel (hydroxypropylcellulose) (HPC)): 110 % of control
- T/C (dose: 37.0 mg/kg/injection, schedule: Q01DX001 (ip), vehicle: Klucel (hydroxypropylcellulose) (HPC)): 101 % of control
- T/C (dose: 75.0 mg/kg/injection, schedule: Q01DX001 (ip), vehicle: Klucel (hydroxypropylcellulose) (HPC)): 104 % of control

Compound: O=[N+]([O-])c1cccc2c1/C(=N/O)c1ccccc1-2
- T/C [4]: 101 % of control
- T/C [5]: 92 % of control
- T/C [6]: 98 % of control

Compound: Nc1nc(N)c2c(Cl)c(CNc3ccc(C(=O)NC(CC(=O)O)CC(=O)O)cc3)ccc2n1
- T/C (dose: 12.5 mg/kg/injection, schedule: Q04DX003 (ip), vehicle: saline): 157 % of control
- T/C (dose: 25.0 mg/kg/injection, schedule: Q04DX003 (ip), vehicle: saline): 178 % of control
- T/C (dose: 50.0 mg/kg/injection, schedule: Q04DX003 (ip), vehicle: saline): 90 % of control

Compound: CSc1nccc(=S)[nH]1
- T/C (dose: 50.0 mg/kg/injection, schedule: Q04DX002 (ip), vehicle: Klucel (hydroxypropylcellulose) (HPC)): 88 % of control
- T/C [8]: 92 % of control
- T/C [9]: 95 % of control

Compound: Cc1cc[c]([Hg][c]2ccc(C)cc2)cc1
- T/C [11]: 97 % of control
- T/C [12]: 103 % of control
- T/C [13]: 94 % of control

Compound: C=CC[n+]1ccccc1C
- T/C (dose: 50.0 mg/kg/injection, schedule: Q01DX009 (ip), vehicle: saline with Tween-80): 91 % of control
- T/C [10]: 91 % of control

Compound: CCOC(=O)CCCl
- T/C (dose: 75.0 mg/kg/injection, schedule: Q01DX009 (ip), vehicle: Klucel (hydroxypropylcellulose) (HPC)): 94 % of control
- T/C (dose: 75.0 mg/kg/injection, schedule: Q04DX003 (ip), vehicle: saline): 117 % of control
- T/C (dose: 150.0 mg/kg/injection, schedule: Q01DX009 (ip), vehicle: Klucel (hydroxypropylcellulose) (HPC)): 96 % of control
- T/C (dose: 300.0 mg/kg/injection, schedule: Q01DX009 (ip), vehicle: Klucel (hydroxypropylcellulose) (HPC)): 97 % of control
- T/C (dose: 300.0 mg/kg/injection, schedule: Q04DX003 (ip), vehicle: saline): 97 % of control

Compound: O=C(CCN1CC1)OCCCl
- T/C (dose: 50.0 mg/kg/injection, schedule: Q01DX001 (ip), vehicle: Klucel (hydroxypropylcellulose) (HPC)): 112 % of control
- T/C (dose: 100.0 mg/kg/injection, schedule: Q01DX001 (ip), vehicle: Klucel (hydroxypropylcellulose) (HPC)): 106 % of control
- T/C (dose: 200.0 mg/kg/injection, schedule: Q01DX001 (ip), vehicle: Klucel (hydroxypropylcellulose) (HPC)): 101 % of control
- T/C (dose: 400.0 mg/kg/injection, schedule: Q01DX001 (ip), vehicle: Klucel (hydroxypropylcellulose) (HPC)): 111 % of control

Compound: CCOc1nc(N)nc2c1-c1ccc(OC)cc1CC2
- T/C (dose: 100.0 mg/kg/injection, schedule: Q04DX002 (ip), vehicle: saline with Tween-80): 91 % of control
- T/C (dose: 200.0 mg/kg/injection, schedule: Q04DX002 (ip), vehicle: saline with Tween-80): 102 % of control
- T/C (dose: 400.0 mg/kg/injection, schedule: Q04DX002 (ip), vehicle: saline with Tween-80): 87 % of control

Compound: c1ccc2nc3c(nc2c1)[nH]c1ccccc13
- T/C (dose: 62.5 mg/kg/injection, schedule: Q01DX Z (ip), vehicle: carboxymethylcellulose (CMC)): 94 % of control
- T/C (dose: 125.0 mg/kg/injection, schedule: Q01DX Z (ip), vehicle: carboxymethylcellulose (CMC)): 100 % of control
- T/C (dose: 250.0 mg/kg/injection, schedule: Q01DX Z (ip), vehicle: carboxymethylcellulose (CMC)): 95 % of control
- T/C (dose: 500.0 mg/kg/injection, schedule: Q01DX Z (ip), vehicle: carboxymethylcellulose (CMC)): 91 % of control

Compound: CCOC(=O)c1cnc(C)nc1Nc1ccccc1I
- T/C [11]: 106 % of control
- T/C [12]: 97 % of control
- T/C [13]: 101 % of control
